Patent US20050256085A1, “Fungicidal mixtures” (priority 2002, published 2005)
Where two headings read alike, the source gives them in different places.

Columns and labels:
Phytophthora infestans = assay type: in vivo; details: tomato leaves, infected next day, assessed after 6 days
Plasmopara viticola = experiment: Persistency against Peronospora of grapevines caused by Plasmopara viticola; assay type: in vivo; details: grapevine leaves, inoculated 3 days after spraying

SMILES | Efficacy in % of the untreated control (Phytophthora infestans; 1.9 ppm in the spray liquor) [%] | Efficacy in % of the untreated control (Phytophthora infestans; 3.75 ppm in the spray liquor) [%] | Efficacy in % of the untreated control (Phytophthora infestans; 7.5 ppm in the spray liquor) [%] | Efficacy in % of the untreated control (Plasmopara viticola; 1.9 ppm in the spray liquor) [%] | Efficacy in % of the untreated control (Plasmopara viticola; 3.75 ppm in the spray liquor) [%] | Efficacy in % of the untreated control (Phytophthora infestans; 0.19 ppm in the spray liquor) [%] | Efficacy in % of the untreated control (Phytophthora infestans; 0.375 ppm in the spray liquor) [%] | Efficacy in % of the untreated control (Phytophthora infestans; 0.75 ppm in the spray liquor) [%] | Efficacy in % of the untreated control (Phytophthora infestans; 1.5 ppm in the spray liquor) [%] | Efficacy in % of the untreated control (Phytophthora infestans; 3 ppm in the spray liquor) [%] | Efficacy in % of the untreated control (Plasmopara viticola; 0.19 ppm in the spray liquor) [%] | Efficacy in % of the untreated control (Plasmopara viticola; 0.375 ppm in the spray liquor) [%] | Efficacy in % of the untreated control (Plasmopara viticola; 1.5 ppm in the spray liquor) [%] | Efficacy in % of the untreated control (Plasmopara viticola; 3 ppm in the spray liquor) [%]
N#Cc1sc2c(=O)c3ccccc3c(=O)c=2sc1C#N [II, dithianon] | 0 | 0 | 0 | 48 | 58 |  |  |  |  |  |  |  |  | 
CC(C)OC(=O)N[C@H](C(=O)N[C@H](C)c1nc2ccc(F)cc2s1)C(C)C [Ia] |  |  |  |  |  | 56 | 67 | 78 | 83 | 89 | 48 | 58 | 79 | 84
